{"source": "ChEMBL document CHEMBL6087472", "about": "“Development and Discovery of a Selective Degrader of Casein Kinases 1 δ/ε” (J Med Chem, 2025)", "key": {"[1]": {"target": "T1, von Hippel-Lindau disease tumor suppressor/Casein kinase I isoform delta (Homo sapiens, UniProt P48730+P40337)", "test": "PROTAC activity at VHL/full length N-terminal Nano-luc fused CK1 delta (unknown origin) transfected in HEK293T cells incubated for 2 hrs followed by substrate addition by NanoBRET target engagement assay", "assay_type": "cell-based"}, "[2]": {"target": "T1, von Hippel-Lindau disease tumor suppressor/Casein kinase I isoform delta", "test": "PROTAC activity at VHL/Hibit-fused CK1 delta in human MV4-11 cells assessed as degradation of CK1-delta incubated for 6 hrs by Nano-Glo HiBiT assay", "assay_type": "cell-based"}, "[3]": {"target": "T1, von Hippel-Lindau disease tumor suppressor/Casein kinase I isoform delta", "test": "PROTAC activity at VHL/Hibit-fused CK1 delta in human MV4-11 cells assessed as degradation of CK1-delta at 10 nM incubated for 6 hrs by Nano-Glo HiBiT assay", "assay_type": "cell-based"}, "[4]": {"target": "T2, von Hippel-Lindau disease tumor suppressor/Casein kinase I isoform alpha (Homo sapiens) (UniProt P48729+P40337)", "T2 sequence (P40337 whole entry, looked up, the tested form may be a part, canonical isoform)": "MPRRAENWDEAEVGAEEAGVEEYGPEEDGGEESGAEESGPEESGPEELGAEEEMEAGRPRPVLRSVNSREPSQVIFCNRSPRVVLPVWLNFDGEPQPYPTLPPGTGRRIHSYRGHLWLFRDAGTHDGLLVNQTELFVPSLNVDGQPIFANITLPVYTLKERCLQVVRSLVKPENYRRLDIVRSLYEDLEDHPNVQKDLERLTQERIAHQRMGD", "T2 sequence (P48729 whole entry, looked up, the tested form may be a part, canonical isoform)": "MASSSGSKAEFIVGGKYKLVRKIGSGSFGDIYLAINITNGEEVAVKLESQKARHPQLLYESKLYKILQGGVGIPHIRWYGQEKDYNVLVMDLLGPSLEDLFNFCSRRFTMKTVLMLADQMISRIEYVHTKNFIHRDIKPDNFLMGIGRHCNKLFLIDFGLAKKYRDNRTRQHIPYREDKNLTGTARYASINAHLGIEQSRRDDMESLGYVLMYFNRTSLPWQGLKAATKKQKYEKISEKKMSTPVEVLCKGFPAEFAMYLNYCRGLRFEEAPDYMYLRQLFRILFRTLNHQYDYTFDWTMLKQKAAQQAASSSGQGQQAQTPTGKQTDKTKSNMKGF", "test": "PROTAC activity at VHL/Hibit-fused CK1 alpha in human MV4-11 cells assessed as degradation of CK1-alpha at 10 to 30 uM incubated for 6 hrs by Western blot analysis", "assay_type": "cell-based", "details": "dose 10-30 µM"}, "[5]": {"target": "T2, von Hippel-Lindau disease tumor suppressor/Casein kinase I isoform alpha (Homo sapiens)", "test": "PROTAC activity at VHL/CK1 alpha in human MV4-11 cells assessed as degradation of CK1-alpha at 10 to 30 uM incubated for 6 hrs by Western blot analysis", "assay_type": "cell-based", "details": "dose 10-30 µM"}, "[6]": {"target": "T1, von Hippel-Lindau disease tumor suppressor/Casein kinase I isoform delta", "test": "PROTAC activity at VHL/Hibit-fused CK1 delta in human MV4-11 cells assessed as degradation of CK1 delta at 5 to 10 uM incubated for 6 hrs by Western blot analysis", "assay_type": "cell-based", "details": "dose 5-10 µM"}, "[7]": {"target": "T2, von Hippel-Lindau disease tumor suppressor/Casein kinase I isoform alpha (Homo sapiens)", "test": "PROTAC activity at VHL/CK1 alpha in HEK293 cells assessed as induction of degradation of CK1 alpha by measuring maximum efficacy at 5 to 10 uM measured after 6 hrs by Western blot analysis relative to control", "assay_type": "cell-based", "details": "dose 5-10 µM"}, "[8]": {"target": "T1, von Hippel-Lindau disease tumor suppressor/Casein kinase I isoform delta", "test": "PROTAC activity at VHL/CK1 delta in HEK293 cells assessed as induction of degradation of CK1 delta by measuring maximum efficacy at 5 to 10 uM measured after 6 hrs by Western blot analysis relative to control", "assay_type": "cell-based", "details": "dose 5-10 µM"}, "MV4-11": {"tested_on": "MV4-11", "test": "Cytotoxicity in human MV4-11 cells at 10 uM measured after 72 hrs by alamar blue assay", "assay_type": "functional, cell-based"}, "[9]": {"target": "T1, von Hippel-Lindau disease tumor suppressor/Casein kinase I isoform delta", "test": "PROTAC activity at VHL/CK1 delta in HEK293 cells assessed as induction of degradation of CK1 delta measured after 6 hrs by Western blot analysis", "assay_type": "cell-based", "details": "dose 0.01-30 µM"}, "[10]": {"target": "T2, von Hippel-Lindau disease tumor suppressor/Casein kinase I isoform alpha (Homo sapiens)", "test": "PROTAC activity at VHL/CK1 alpha in HEK293 cells assessed as induction of degradation of CK1 alpha at high concentration measured after 6 hrs by Western blot analysis relative to control", "assay_type": "cell-based"}, "[11]": {"target": "T1, von Hippel-Lindau disease tumor suppressor/Casein kinase I isoform delta", "test": "PROTAC activity at VHL/CK1 delta in HEK293 cells assessed as induction of degradation of CK1 delta at 3 uM measured after 1 hrs by Western blot analysis", "assay_type": "cell-based"}, "[12]": {"target": "T3, von Hippel-Lindau disease tumor suppressor/Casein kinase I isoform epsilon (Homo sapiens) (UniProt P49674+P40337)", "T3 sequence (P40337 whole entry, looked up, canonical isoform)": "as the sequence (P40337 whole entry, looked up, the tested form may be a part, canonical isoform) above", "T3 sequence (P49674 whole entry, looked up, canonical isoform)": "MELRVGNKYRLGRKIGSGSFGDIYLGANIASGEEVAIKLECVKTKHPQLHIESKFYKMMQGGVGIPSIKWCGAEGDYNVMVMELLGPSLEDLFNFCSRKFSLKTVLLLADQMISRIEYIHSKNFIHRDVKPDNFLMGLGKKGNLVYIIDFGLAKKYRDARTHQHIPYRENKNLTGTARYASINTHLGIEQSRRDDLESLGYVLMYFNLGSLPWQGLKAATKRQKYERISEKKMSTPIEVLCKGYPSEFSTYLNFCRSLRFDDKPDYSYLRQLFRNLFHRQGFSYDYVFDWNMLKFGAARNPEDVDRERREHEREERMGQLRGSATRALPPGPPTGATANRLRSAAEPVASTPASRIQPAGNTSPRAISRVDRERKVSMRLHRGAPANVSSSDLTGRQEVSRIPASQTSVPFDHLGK", "test": "PROTAC activity at VHL/CK1 epsilon in HEK293 cells assessed as induction of degradation of CK1 epsilon at 3 uM measured after 1 hrs by Western blot analysis", "assay_type": "cell-based"}, "[13]": {"target": "T3, von Hippel-Lindau disease tumor suppressor/Casein kinase I isoform epsilon (Homo sapiens)", "test": "PROTAC activity at VHL/CK1 epsilon in HEK293 cells assessed as induction of degradation of CK1 epsilon at 3 uM measured after 6 hrs by Western blot analysis relative to control", "assay_type": "cell-based"}, "[14]": {"target": "T2, von Hippel-Lindau disease tumor suppressor/Casein kinase I isoform alpha (Homo sapiens)", "test": "PROTAC activity at VHL/CK1 alpha in human MV4-11 cells assessed as induction of degradation of CK1 alpha by measuring maximum efficacy at 2.5 uM measured after 12 hrs by HiBit assay relative to control", "assay_type": "cell-based"}, "[15]": {"target": "T1, von Hippel-Lindau disease tumor suppressor/Casein kinase I isoform delta", "test": "PROTAC activity at VHL/CK1 delta in human MV4-11 cells assessed as induction of degradation of CK1 delta by measuring maximum efficacy at 0.625 to 10 uM measured after 9 hrs by HiBit assay relative to control", "assay_type": "cell-based", "details": "dose 0.625-10 µM"}, "[16]": {"target": "T1, von Hippel-Lindau disease tumor suppressor/Casein kinase I isoform delta", "test": "PROTAC activity at VHL/CK1 delta in human U87 cells assessed as induction of degradation of CK1 delta at 1 uM measured after 6 hrs", "assay_type": "cell-based"}, "[17]": {"target": "T3, von Hippel-Lindau disease tumor suppressor/Casein kinase I isoform epsilon (Homo sapiens)", "test": "PROTAC activity at VHL/CK1 epsilon in human MDA-MB-231 cells assessed as induction of degradation of CK1 epsilon by measuring maximum efficacy at 1 uM measured after 6 hrs relative to control", "assay_type": "cell-based"}, "[18]": {"target": "T1, von Hippel-Lindau disease tumor suppressor/Casein kinase I isoform delta", "test": "PROTAC activity at VHL/CK1 delta in human U87 cells assessed as induction of degradation of CK1 delta by measuring maximum efficacy at 1 uM measured after 6 hrs relative to control", "assay_type": "cell-based"}, "[19]": {"target": "T3, von Hippel-Lindau disease tumor suppressor/Casein kinase I isoform epsilon (Homo sapiens)", "test": "PROTAC activity at VHL/CK1 epsilon in human U87 cells assessed as induction of degradation of CK1 epsilon by measuring maximum efficacy at 1 uM measured after 6 hrs relative to control", "assay_type": "cell-based"}, "[20]": {"target": "T1, von Hippel-Lindau disease tumor suppressor/Casein kinase I isoform delta", "test": "PROTAC activity at VHL/HiBit fused CK1 delta in human MV4-11 cells assessed as fold change at 2.5 uM measured after 6 hrs in presence of 1 uM of MU1742 by Nano-Glo HiBit assay", "assay_type": "cell-based"}, "[21]": {"target": "T1, von Hippel-Lindau disease tumor suppressor/Casein kinase I isoform delta", "test": "PROTAC activity at VHL/HiBit fused CK1 delta in human MV4-11 cells assessed as fold change at 0.63 uM measured after 6 hrs in presence of MLN4924 by Nano-Glo HiBit assay", "assay_type": "cell-based"}, "[22]": {"target": "T1, von Hippel-Lindau disease tumor suppressor/Casein kinase I isoform delta", "test": "PROTAC activity at VHL/HiBit fused CK1 delta in human MV4-11 cells assessed as fold change at 0.63 uM measured after 6 hrs in presence of 10 uM of MU1742 by Nano-Glo HiBit assay", "assay_type": "cell-based"}, "[23]": {"target": "T3, von Hippel-Lindau disease tumor suppressor/Casein kinase I isoform epsilon (Homo sapiens)", "test": "PROTAC activity at VHL/CK1 epsilon in human HEK293 cells at 0.625 to 10 uM in presence of MU1742 by Western blot analysis", "assay_type": "cell-based", "details": "dose 0.625-10 µM"}, "[24]": {"target": "T1, von Hippel-Lindau disease tumor suppressor/Casein kinase I isoform delta", "test": "PROTAC activity at VHL/CK1 delta in human HEK293 cells assessed as degradation of CK1-delta at 3 to 20 uM incubated overnight followed by compound washout and measured after 1 hr by Nano-Glo HiBiT assay", "assay_type": "cell-based", "details": "dose 3-20 µM"}, "[25]": {"target": "T3, von Hippel-Lindau disease tumor suppressor/Casein kinase I isoform epsilon (Homo sapiens)", "test": "PROTAC activity at VHL/CK1 epsilon in human HEK293 cells assessed as degradation of CK1 epsilon at 3 to 20 uM incubated overnight followed by compound washout and measured after 1 hr by Nano-Glo HiBiT assay", "assay_type": "cell-based", "details": "dose 3-20 µM"}, "[26]": {"target": "T1, von Hippel-Lindau disease tumor suppressor/Casein kinase I isoform delta", "test": "PROTAC activity at VHL/Hibit-fused CK1 delta in human MV4-11 cells assessed as degradation of CK1-delta at 2.5 uM measured upto 12 hrs in presence of cycloheximide by Nano-Glo HiBiT assay relative to control", "assay_type": "cell-based"}, "[27]": {"target": "T1, von Hippel-Lindau disease tumor suppressor/Casein kinase I isoform delta", "test": "PROTAC activity at VHL/CK1 delta in HEK293 cells assessed as induction of degradation of CK1 delta at upto 20 uM pretreated with LGK974 followed by compound addition and measured after 6 hrs by Western blot analysis", "assay_type": "cell-based"}, "[28]": {"target": "Casein kinase I isoform delta (Homo sapiens) (UniProt P48730)", "sequence (P48730 whole entry, looked up, canonical isoform)": "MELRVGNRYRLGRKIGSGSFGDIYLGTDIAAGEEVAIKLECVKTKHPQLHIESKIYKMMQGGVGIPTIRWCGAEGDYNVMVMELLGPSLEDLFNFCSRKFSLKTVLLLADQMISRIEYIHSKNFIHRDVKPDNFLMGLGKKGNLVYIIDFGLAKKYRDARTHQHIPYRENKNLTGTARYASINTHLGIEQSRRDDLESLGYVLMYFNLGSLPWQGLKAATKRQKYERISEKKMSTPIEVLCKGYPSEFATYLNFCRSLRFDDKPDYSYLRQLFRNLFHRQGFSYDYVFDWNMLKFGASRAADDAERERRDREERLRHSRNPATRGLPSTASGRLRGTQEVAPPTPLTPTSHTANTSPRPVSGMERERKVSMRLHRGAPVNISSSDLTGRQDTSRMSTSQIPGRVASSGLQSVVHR", "test": "Binding affinity to […] in human HEK293 cells assessed as target engagement at >3 uM", "assay_type": "cell-based"}}, "note": "Active and inactive are the calls of the source. The rule behind the calls is not given here."}
{"smiles": "Cc1ncsc1-c1ccc(CNC(=O)[C@H]2C[C@H](O)CN2C(=O)[C@H](NC(=O)CCCCCCC(=O)N2CCC(F)(Cn3cnc(-c4ccc(F)cn4)c3-c3ccnc4[nH]ccc34)CC2)C(C)(C)C)cc1", "values": [{"measurement": "Emax", "setting": "[1]", "result": 3.2, "unit": "%"}, {"measurement": "DC50", "setting": "[2]", "result": 550, "unit": "nM"}, {"measurement": "Activity", "setting": "[3]", "result": "Active"}, {"measurement": "Activity", "setting": "[4]", "result": "Not active; Compound Showed Weak Degradation"}, {"measurement": "Activity", "setting": "[5]", "result": "Not active; Compound Showed Weak Degradation"}, {"measurement": "Activity", "setting": "[6]", "result": "Active"}, {"measurement": "Emax", "setting": "[7]", "result": "> 50", "unit": "%"}, {"measurement": "Emax", "setting": "[8]", "result": "> 50", "unit": "%"}, {"measurement": "Activity", "setting": "MV4-11", "result": "Active; Compound Showed Milder Cytotoxic Effect"}, {"measurement": "Activity", "setting": "[9]", "result": "Dose-dependent-effect"}, {"measurement": "Activity", "setting": "[10]", "result": "Not active; Compound Showed Weak Degradation"}, {"measurement": "Activity", "setting": "[11]", "result": "Active"}, {"measurement": "Activity", "setting": "[12]", "result": "Active"}, {"measurement": "Activity", "setting": "[13]", "result": 100, "unit": "%"}, {"measurement": "Emax", "setting": "[14]", "result": 20, "unit": "%"}, {"measurement": "Emax", "setting": "[15]", "result": 75, "unit": "%"}, {"measurement": "Activity", "setting": "[16]", "result": "Active"}, {"measurement": "Emax", "setting": "[17]", "result": 75, "unit": "%"}, {"measurement": "Emax", "setting": "[18]", "result": "> 50", "unit": "%"}, {"measurement": "Emax", "setting": "[19]", "result": "> 50", "unit": "%"}, {"measurement": "fold change (FC)", "setting": "[20]", "result": 0.97}, {"measurement": "fold change (FC)", "setting": "[21]", "result": 0.82}, {"measurement": "fold change (FC)", "setting": "[22]", "result": 1.2}, {"measurement": "Activity", "setting": "[23]", "result": "inactive"}, {"measurement": "Activity", "setting": "[24]", "result": "inactive"}, {"measurement": "Activity", "setting": "[25]", "result": "inactive"}, {"measurement": "Activity", "setting": "[26]", "result": 90, "unit": "%"}, {"measurement": "Activity", "setting": "[27]", "result": "Active"}, {"measurement": "Activity", "setting": "[28]", "result": "Active"}]}
